Experimental data published in patent publication US11180487B2, “Substituted cyanoindoline derivatives as NIK inhibitors” (Janssen Pharmaceutica NV, priority 2016, dated 2021).

Experiments:
[1] = biological target: recombinant human NF-kappaB-inducing kinase (NIK/MAP3K14) (Homo sapiens, UniProt Q99558); test: Inhibition of auto-phosphorylation of recombinant human NIK/MAP3K14 activity (AlphaScreen), Biological Assay A; type: biochemical; settings: averaged values over all measurements on all batches
Procedure: Inhibition of Auto-Phosphorylation of Recombinant Human NF-kappaB-Inducing Kinase (NIK/MAP3K14) Activity (AlphaScreen®)
NIK/MAP3K14 auto-phosphorylation activity was measured using the AlphaScreen® (αscreen) format (Perkin Elmer). All compounds tested were dissolved in dimethyl sulfoxide (DMSO) and further dilutions were made in assay buffer. Final DMSO concentration was 1% (v/v) in assays. Assay buffer was 50 mM Tris pH 7.5 containing 1 mM EGTA (ethylene glycol tetraacetic acid), 1 mM DTT (dithiothreitol), 0.1 mM Na3VO4, 5 mM MgCl2, 0.01% Tween® 20. Assays were carried out in 384 well Alphaplates (Perkin Elmer). Incubations consisted of compound, 25 microM Adenosine-5′-triphosphate (ATP), and 0.2 nM NIK/MAP3K14. Incubations were initiated by addition of GST-tagged NIK/MAP3K14 enzyme, carried out for 1 h at 25° C. and terminated by addition of stop buffer containing anti-phospho-IKK Ser176/180 antibody. Protein A Acceptor and Glutathione-Donor beads were added before reading using an EnVision® Multilabel Plate Reader (Perkin Elmer). Signal obtained in the wells containing blank samples was subtracted from all other wells and IC50's were determined by fitting a sigmoidal curve to % inhibition of control versus Log10 compound concentration.

[2] = test system: KMS12-BM (NIK WT) multiple myeloma cells; test: Antiproliferative activity on KMS12-BM multiple myeloma cells (CellTiter-Glo, 96 hr), Biological Assay C; type: cell-based, human; settings: Homo sapiens, KMS-12-BM, 96 h, averaged values, read-out: KMS-12 Proliferation inhibition (IC50 (nM))
Procedure: (§1) Determination of Antiproliferative Activity on JJN-3 (NIK Translocated) and KMS12-BM (NIK WT) Multiple Myeloma Cells
(§2) All compounds tested were dissolved in DMSO and further dilutions were made in culture medium. Final DMSO concentration was 0.3% (v/v) in cell proliferation assays. Viability was assessed using CellTiter-Glo cell viability assay kit (Promega). The human JJN-3 and KMS12-BM cells (DSMZ) were cultured in RPMI 1640 medium supplemented with 2 mM L-glutamine, and 10% fetal calf serum (PAA). Cells were routinely kept as suspension cells at 37° C. in a humidified 5% CO2 atmosphere. Cells were passaged at a seeding density of 0.2×10^6/ml twice a week. Cells were seeded in black tissue culture treated 96-well plates (Perkin Elmer). Densities used for plating ranged from 15000 (JJN3) to 20000 (KMS12BM) cells per well in a total volume of 135 μl medium. Drugs and/or solvents were added (15 μl) to a final volume of 150 μl. Following 96 hr of treatment, plates were removed from the incubator and allowed to equilibrate to room temperature for approx 10 min. 75 μl CellTiter-Glo reagent was added to each well that was then covered (Perkin Elmer Topseal) and shaken on plate shaker for 10 min. Luminescence was measured on a HTS Topcount (Perkin Elmer).
(§3) Within an experiment, the results for each treatment were the mean of 2 replicate wells. For initial screening purposes, compounds were tested using a 9 point dilution curve (serial 1:3 dilutions). For each experiment, controls (containing no drug) and a blank incubation (containing cells read at the time of compound addition) were run in parallel. The blank value was subtracted from all control and sample values. For each sample, the mean value for cell growth (in relative light units) was expressed as a percentage of the mean value for cell growth of the control.

[3] = test system: JJN-3 (NIK translocated) multiple myeloma cells; test: Antiproliferative activity on JJN-3 multiple myeloma cells (CellTiter-Glo, 96 hr), Biological Assay C; type: cell-based, human; settings: Homo sapiens, JJN-3, 96 h, JJN-3 (NIK translocated) cells, averaged values, read-out: JJN-3 Proliferation inhibition (IC50 (nM))
Procedure: as §1, §2, §3

Sequence of recombinant human NF-kappaB-inducing kinase (NIK/MAP3K14) (Q99558 whole entry): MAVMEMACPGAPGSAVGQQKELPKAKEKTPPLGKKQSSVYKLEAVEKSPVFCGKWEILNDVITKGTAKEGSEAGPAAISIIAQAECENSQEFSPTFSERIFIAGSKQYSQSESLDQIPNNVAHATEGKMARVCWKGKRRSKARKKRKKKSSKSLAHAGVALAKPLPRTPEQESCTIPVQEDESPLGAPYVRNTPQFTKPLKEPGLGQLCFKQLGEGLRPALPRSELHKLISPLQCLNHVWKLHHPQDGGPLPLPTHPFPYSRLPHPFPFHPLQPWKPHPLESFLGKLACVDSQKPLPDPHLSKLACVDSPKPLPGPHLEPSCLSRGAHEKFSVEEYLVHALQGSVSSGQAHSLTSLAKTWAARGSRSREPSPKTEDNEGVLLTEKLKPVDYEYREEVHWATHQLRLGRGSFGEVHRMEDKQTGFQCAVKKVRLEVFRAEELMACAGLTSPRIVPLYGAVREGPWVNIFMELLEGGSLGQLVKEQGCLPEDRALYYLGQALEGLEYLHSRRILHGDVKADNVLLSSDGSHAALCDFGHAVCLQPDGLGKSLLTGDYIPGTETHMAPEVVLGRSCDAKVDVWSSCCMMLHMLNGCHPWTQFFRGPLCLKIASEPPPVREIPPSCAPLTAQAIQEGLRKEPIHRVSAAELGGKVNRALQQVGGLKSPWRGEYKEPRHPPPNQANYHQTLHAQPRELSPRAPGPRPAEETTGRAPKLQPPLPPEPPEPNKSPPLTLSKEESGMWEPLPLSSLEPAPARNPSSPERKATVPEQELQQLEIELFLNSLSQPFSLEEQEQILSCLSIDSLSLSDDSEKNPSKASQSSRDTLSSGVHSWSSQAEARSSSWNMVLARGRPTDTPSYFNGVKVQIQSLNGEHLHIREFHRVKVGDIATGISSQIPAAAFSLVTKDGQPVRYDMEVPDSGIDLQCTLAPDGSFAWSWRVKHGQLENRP

| SMILES | IC50 [1] | IC50 [2] | melting point | IC50 [3] |
| --- | --- | --- | --- | --- |
| COCCOc1ccc(Cl)cc1Nc1nccc(-c2cc(C#N)c3c(c2)C(C)(CO)CN3)n1 (centres unmarked) [Compound 34] | 20.9 nM | > 10000 nM | 184 °C | 316 nM |
| COc1cc(Nc2nccc(-c3cc(C#N)c4c(c3)C(C)(C)CN4)n2)c(F)c(OC)c1 [Compound 104] | 12 nM | > 10000 nM | 176 °C | 2140 nM |
| COCCOc1cc(P(C)(C)=O)ccc1Nc1nccc(-c2cc(C#N)c3c(c2)[C@@](C)(CO)CN3)n1 [Compound 67] | 4.3 nM | > 10000 nM | 188 °C | ~1700 nM |
| CN(C)C(=O)c1ccc(Cl)cc1Nc1nccc(-c2cc(C#N)c3c(c2)C(C)(CO)CN3)n1 (centres unmarked) [Compound 56] | 126 nM | > 10000 nM | 170 °C | 1740 nM |
| CN(C)C(=O)Cc1ccc(Cl)cc1Nc1nccc(-c2cc(C#N)c3c(c2)C(C)(CO)CN3)n1 (centres unmarked) [Compound 54] | 9.8 nM | > 10000 nM | 154 °C | 275 nM |
| CC1(CO)CNc2c(C#N)cc(-c3ccnc(Nc4cc(Cl)ccc4Cl)n3)cc21 (centres unmarked) [Compound 29] | 17.4 nM | > 10000 nM | 210 °C | 166 nM |
| COc1cc(C(=O)N2CC3(CCCNC3)C2)c(Cl)cc1Nc1nccc(-c2cc(C#N)c3c(c2)C(C)(C)CN3)n1 [Compound 113] | 2.6 nM | ~407 nM | 178 °C | 28 nM |
| COCCCc1ccc(Cl)cc1Nc1nccc(-c2cc(C#N)c3c(c2)[C@@](C)(CO)CN3)n1 [Compound 72] | 11 nM | > 10000 nM | 189 °C | 123 nM |
| Cc1cc(C(=O)NCC2COC2)c(F)cc1Nc1nccc(-c2cc(C#N)c3c(c2)[C@@](C)(CO)CN3)n1 [Compound 187] | 3.2 nM | 1100 nM | 240 °C | 39 nM |
| CC(=O)Nc1cc(Cl)cc(Nc2nccc(-c3cc(C#N)c4c(c3)[C@@](C)(CO)CN4)n2)c1C [Compound 63] | 1.7 nM | ~5010 nM | 262 °C | 7 nM |
| CC1(C)CNc2c(C#N)cc(-c3ccnc(Nc4cc(Cl)ccc4OCCO)n3)cc21 [Compound 107] | 41.7 nM | > 10000 nM | 176 °C | 1020 nM |
| CC1(CO)CNc2c(C#N)cc(-c3ccnc(Nc4cc(Cl)ccc4OCCO)n3)cc21 (centres unmarked) [Compound 40] | 8.7 nM | > 10000 nM | 236 °C | 155 nM |
| COc1cc(C(=O)NCC(C)O)c(Cl)cc1Nc1nccc(-c2cc(C#N)c3c(c2)C(C)(C)CN3)n1 (centres unmarked) [Compound 112] | 4.3 nM | > 10000 nM | > 260 °C | 20 nM |
| COCCOc1cc(F)ccc1Nc1nccc(-c2cc(C#N)c3c(c2)[C@@](C)(CO)CN3)n1 [Compound 69] | 4.9 nM | > 10000 nM | 157 °C | 1020 nM |
| CC1(C)CNc2c(C#N)cc(-c3ccnc(Nc4ccccc4C(=O)N4CCC(O)C4)n3)cc21 (centres unmarked) [Compound 111] | 3550 nM | > 10000 nM | 219 °C | 3470 nM |
| COCCOc1ccc(Cl)cc1Nc1nccc(-c2cc(C#N)c3c(c2)[C@](C)(CO)CN3)n1 [Compound 57] | 50.1 nM | > 10000 nM | 188 °C | > 10000 nM |
| COc1ccc(Cl)cc1Nc1ncc(F)c(-c2cc(C#N)c3c(c2)[C@@](C)(CO)CN3)n1 [Compound 48] | 8.9 nM | > 10000 nM | > 250 °C | 447 nM |
| Cc1ccc(C#N)cc1Nc1nccc(-c2cc(C#N)c3c(c2)C(C)(CO)CN3)n1 (centres unmarked) [Compound 26] | 3.7 nM | > 10000 nM | 195 °C | 255 nM |
| CC(C)N1CCN(C(=O)Cc2ccc(Cl)cc2Nc2nccc(-c3cc(C#N)c4c(c3)C(C)(CO)CN4)n2)CC1 (centres unmarked) [Compound 55] | 15.5 nM | > 10000 nM | 135 °C | 282 nM |
| COc1cc(C(=O)N2CC3(CC(O)C3)C2)c(Cl)cc1Nc1nccc(-c2cc(C#N)c3c(c2)C(C)(C)CN3)n1 [Compound 123] | 8.5 nM | 1050 nM | 287 °C | 14 nM |

Continued, values first:

| IC50 [1] | IC50 [2] | melting point | IC50 [3] | SMILES |
| --- | --- | --- | --- | --- |
| 49 nM | 1350 nM | 104 °C | 447 nM | CN1CCCC(Oc2ccc(Cl)cc2Nc2nccc(-c3cc(C#N)c4c(c3)C(C)(C)CN4)n2)C1 (centres unmarked) [Compound 101] |
| 3.9 nM | > 10000 nM | 237 °C | 2190 nM | C[C@]1(CO)CNc2c(C#N)cc(-c3ccnc(Nc4cc(C#N)ccc4C(F)(F)F)n3)cc21 [Compound 70] |
| 1.7 nM | 110 nM | > 260 °C | 13 nM | CCN1CCC(c2ccc(Nc3nccc(-c4cc(C#N)c5c(c4)C(C)(CO)CN5)n3)cc2Cl)CC1 (centres unmarked) [Compound 41] |
| 11.2 nM | > 10000 nM | 239 °C | 85 nM | COc1ccc(Cl)cc1Nc1nccc(-c2cc(C#N)c3c(c2)C(C)(CO)CN3)n1 (centres unmarked) [Compound 33] |
| 51.3 nM | > 10000 nM | 224 °C | > 10000 nM | COc1ccc(C(F)(F)F)cc1Nc1nccc(-c2cc(C#N)c3c(c2)C(C)(CO)CN3)n1 (centres unmarked) [Compound 30] |
| 2.5 nM | 251 nM | 237 °C | 9 nM | CN1CCC(Oc2ccc(Nc3nccc(-c4cc(C#N)c5c(c4)C(C)(CO)CN5)n3)cc2C(F)(F)F)CC1 (centres unmarked) [Compound 43] |
| 30.9 nM | > 10000 nM | 190 °C | 182 nM | CC1(CO)CNc2c(C#N)cc(-c3ccnc(Nc4cc(C(F)(F)F)ccc4OCCO)n3)cc21 (centres unmarked) [Compound 38] |
| 5.3 nM | > 10000 nM | 295 °C | 2340 nM | COc1ccc(C#N)cc1Nc1nccc(-c2cc(C#N)c3c(c2)C(C)(CO)CN3)n1 (centres unmarked) [Compound 31] |
| 219 nM | 8320 nM | 120 °C | 380 nM | CC1(C)CNc2c(C#N)cc(-c3ccnc(Nc4cc(Cl)ccc4OC4CCN(C5CC5)CC4)n3)cc21 [Compound 99] |
| 3 nM | 102 nM | 190 °C | 9 nM | CC1CN(Cc2ccc(Nc3nccc(-c4cc(C#N)c5c(c4)C(C)(CO)CN5)n3)cc2C(F)(F)F)CC(C)N1C (centres unmarked) [Compound 50] |
| 75.9 nM | 6460 nM | 263 °C | 51 nM | CC1(CO)CNc2c(C#N)cc(-c3ccnc(Nc4ccc(C5CCOCC5)c(C(F)(F)F)c4)n3)cc21 (centres unmarked) [Compound 36] |
| 41.7 nM | > 10000 nM | 217 °C | 676 nM | CC1(CO)CNc2c(C#N)cc(-c3ccnc(Nc4cc(Cl)ccc4OC(F)(F)F)n3)cc21 (centres unmarked) [Compound 52] |
| 5.3 nM | ~7240 nM | 238 °C | 71 nM | Cc1c(Nc2nccc(-c3cc(C#N)c4c(c3)[C@@](C)(CO)CN4)n2)cccc1C(=O)N1CCN(C2CC2)CC1 [Compound 206] |
| 105 nM | > 10000 nM | 126 °C | 3720 nM | CC1(C)CNc2c(C#N)cc(-c3ccnc(Nc4cc(Cl)ccc4OC4CCOCC4)n3)cc21 [Compound 103] |
| 24.6 nM | > 10000 nM | 172 °C | 1620 nM | CC1(CO)CNc2c(C#N)cc(-c3ccnc(Nc4cc(Cl)ccc4C(F)(F)F)n3)cc21 (centres unmarked) [Compound 49] |
